This note sets out measurements from patent publication US11174291B2, “Silstatin compounds” (Arizona Board of Regents on behalf of Arizona State …, priority 2015, dated 2021).

For series [1] the following is noted: amide bond; 36-membered ring; 2 steps.
Series [2] has as its system BXPC-3. The series is described as follows: NCI sulforhodamine B growth inhibition, pancreas cancer cells. It is filed as cell-based, human. The settings on record: BXPC3 pancreas, 48 h. The protocol:
(§1) Inhibition of human cancer cell growth was assessed using the National Cancer Institute's standard sulforhodamine B assay as previously described.^19In summary, cells in a 5% fetal bovine serum/RPMI1640 medium were inoculated in 96-well plates and incubated for 24 hrs. Next, serial dilutions of the compounds were added. After 48 h, the plates were fixed with trichloroacetic acid, stained with sulforhodamine B, and read with an automated microplate reader. A growth inhibition of 50% (GI50 or the drug concentration causing a 50% reduction in the net protein increase) was calcd from optical density data with Immunosoft software. Normal cells were treated in identical conditions. Normal human prostate CRL-2221 (PZ—HPV-7) was grown in MEM 10% FBS and normal human breast MCF-10A in MEGM kit.

Series [3] deals with DU-145. Put plainly: NCI sulforhodamine B growth inhibition, prostate cancer cells. Particulars: DU145 prostate, 48 h. It is filed as cell-based, human. The procedure: as §1
Series [4] deals with KM20L2. Put plainly: NCI sulforhodamine B growth inhibition, colon cancer cells. It is filed as cell-based, human. Particulars: 48 h. The procedure: as §1
For series [5], the system named is SF268. The series is described as follows: NCI sulforhodamine B growth inhibition, CNS cancer cells. It is filed as cell-based, human. The settings on record: 48 h. The procedure:
as §1

The subject of series [6] is MCF-7. The series is described as follows: NCI sulforhodamine B growth inhibition, breast cancer cells. It is filed as cell-based, human. Particulars: MCF-7 breast, 48 h. The procedure:
as §1

Series [7] relates to CRL-2221 (PZ—HPV-7). Put plainly: Sulforhodamine B growth inhibition, normal prostate cells. It is filed as cell-based, human. The settings on record: for Growth inhibition of human normal cell lines GI50: CRL-2221 normal prostate. The protocol: as §1
For series [8], the system named is mini panel of cancer cell lines. The series is described as follows: Growth inhibition across the mini panel of cancer cell lines. The settings on record: for Cancer cell growth inhibition, assessment in words: mini panel of cancer cell lines (Table 1). It is filed as cell-based, human. The procedure: as §1
The growth inhibition property of the silstatins and some intermediates were evaluated against a mini panel of cancer cell lines (Table 1).

For series [9], the system named is NCI-H460. The series is described as follows: NCI sulforhodamine B growth inhibition, lung cancer cells. It is filed as cell-based, human. Particulars: 48 h. The procedure:
as §1

Series [10] has as its system MCF-10A. Put plainly: Sulforhodamine B growth inhibition, normal breast cells. It is filed as cell-based, human. The settings on record: for Growth inhibition of human normal cell lines GI50: MCF-10A normal breast. The procedure: as §1

“Cyclo-{Tyr(tBu)-D-Hcha-D-Val-Lac-[Val-D-Hica-D-Val-Lac]2}”: in [1], the ring closure, isolated yield was determined as 22%.
With `CC(C)C[C@H]1OC(=O)[C@H](C(C)C)NC(=O)[C@H](C)OC(=O)[C@@H](C(C)C)NC(=O)[C@@H](CC2CCCCC2)OC(=O)[C@H]([C@@H](C)O)NC(=O)[C@H](C)OC(=O)[C@@H](C(C)C)NC(=O)[C@@H](CC(C)C)OC(=O)[C@H](C(C)C)NC(=O)[C@H](C)OC(=O)[C@@H](C(C)C)NC1=O` [Silstatin 7 (18a), Cyclo-{Thr-D-Hcha-D-Val-Lac-[Val-D-Hica-D-Val-Lac]2}], the “Growth inhibition of human cancer cell lines GI50” value came to 3.8 ng/mL in series [2]; 3 ng/mL in [3]; 1.5 ng/mL in series [4]; 3.1 ng/mL in [5]; 1.4 ng/mL in [6]; 3.2 ng/mL in series [9]. The “Growth inhibition of human normal cell lines GI50” value in series [7] and in series [10] was 4 ng/mL in each case. The “Cancer cell growth inhibition, assessment in words” value in [8] is recorded as “rescuing the activity”.
With Cyclo-[Val-D-Hcha-D-Val-Lac]3, the ring closure, isolated yield in series [1] worked out at 23%.
Same read-out and setting: as for “Cyclo-{Thr(tBu)-D-Hcha-D-Val-Lac-[Val-D-Hica-D-Val-Lac]2}”, the figure is 48%.
Still for that read-out and setting: as for “Cyclo-{Tyr(tBu)-D-Hica-D-Val-Lac-[Val-D-Hica-D-Val-Lac]2}”, the figure is 11%; as for “Cyclo-{Tyr(tBu)-D-Hcha-D-Val-Lac-[Val-D-Hcha-D-Val-Lac]2}”, 34%.
Same read-out and setting: as for “Cyclo-{Thr(tBu)-D-Hica-D-Val-Lac-[Val-D-Hica-D-Val-Lac]2}”, the figure is 33%.
On to `CC(C)[C@@H]1NC(=O)[C@H](C)OC(=O)[C@@H](C(C)C)NC(=O)[C@@H](CC2CCCCC2)OC(=O)[C@H](C(C)C)NC(=O)[C@H](C)OC(=O)[C@@H](C(C)C)NC(=O)[C@@H](CC2CCCCC2)OC(=O)[C@H](Cc2ccc(O)cc2)NC(=O)[C@H](C)OC(=O)[C@@H](C(C)C)NC(=O)[C@@H](CC2CCCCC2)OC1=O` [Silstatin 6 (15b), Cyclo-{Tyr-D-Hcha-D-Val-Lac-[Val-D-Hcha-D-Val-Lac]2}], for which the “Growth inhibition of human cancer cell lines GI50” value worked out at 530 ng/mL in [2]; 220 ng/mL in [3]; 90 ng/mL in [4]; 50 ng/mL in series [5]; 120 ng/mL in [6]; 320 ng/mL in [9]. Moreover, in [8], the “Cancer cell growth inhibition, assessment in words” value was “marked reduction of cancer cell growth inhibition capability”.
In the case of “Cyclo-{Thr(tBu)-D-Hcha-D-Val-Lac-[Val-D-Hcha-D-Val-Lac]2}”, in series [1], the ring closure, isolated yield turned out to be 29%.
Turning to `CC(C)C[C@H]1OC(=O)[C@H](C(C)C)NC(=O)[C@H](C)OC(=O)[C@@H](C(C)C)NC(=O)[C@@H](CC(C)C)OC(=O)[C@H]([C@@H](C)O)NC(=O)[C@H](C)OC(=O)[C@@H](C(C)C)NC(=O)[C@@H](CC(C)C)OC(=O)[C@H](C(C)C)NC(=O)[C@H](C)OC(=O)[C@@H](C(C)C)NC1=O` [Silstatin 2 (8a), Cyclo-{Thr-D-Hica-D-Val-Lac-[Val-D-Hica-D-Val-Lac]2}], the “Growth inhibition of human cancer cell lines GI50” value in [2] was found to be 4 ng/mL; in [3], 6 ng/mL; in [4], 3.3 ng/mL; in series [5], 3.1 ng/mL; in series [6], 2.2 ng/mL; in series [9], 3.2 ng/mL. The “Cancer cell growth inhibition, assessment in words” value in series [8] is reported as “somewhat decreased activity”.
Regarding `CC(C)[C@@H]1NC(=O)[C@H](C)OC(=O)[C@@H](C(C)C)NC(=O)[C@@H](CC2CCCCC2)OC(=O)[C@H]([C@@H](C)O)NC(=O)[C@H](C)OC(=O)[C@@H](C(C)C)NC(=O)[C@@H](CC2CCCCC2)OC(=O)[C@H](C(C)C)NC(=O)[C@H](C)OC(=O)[C@@H](C(C)C)NC(=O)[C@@H](CC2CCCCC2)OC1=O` [Silstatin 5 (15a), Cyclo-{Thr-D-Hcha-D-Val-Lac-[Val-D-Hcha-D-Val-Lac]2}], the “Growth inhibition of human cancer cell lines GI50” value in series [2] is 30 ng/mL; in [3], 5 ng/mL; in [4] it was 4.4 ng/mL; in series [5] it was 4.4 ng/mL; in series [6], 3.1 ng/mL; in [9], 21 ng/mL. Moreover, the “Cancer cell growth inhibition, assessment in words” value in series [8] was “very high inhibitory activity”.
`CC(C)C[C@H]1OC(=O)[C@H](C(C)C)NC(=O)[C@H](C)OC(=O)[C@@H](C(C)C)NC(=O)[C@@H](CC2CCCCC2)OC(=O)[C@H]([C@@H](C)OC(=O)CCCN(C)C(=O)OCc2ccc(O[C@@H]3O[C@H](C(=O)O)[C@@H](O)[C@H](O)[C@H]3O)c([N+](=O)[O-])c2)NC(=O)[C@H](C)OC(=O)[C@@H](C(C)C)NC(=O)[C@@H](CC(C)C)OC(=O)[C@H](C(C)C)NC(=O)[C@H](C)OC(=O)[C@@H](C(C)C)NC1=O` [Silstatin 28]: the “Growth inhibition of human cancer cell lines GI50” value in [2] is 200 ng/mL; in series [3], 130 ng/mL; in series [4] it was 40 ng/mL; in [5] it was 50 ng/mL; in [6], 31 ng/mL; in series [9], 70 ng/mL. Also, the “Decrease of normal cell growth inhibition activity with respect to the parent silstatin 7 (18a)” value in series [7] (CRL-2221) is given as 12.5 times; in series [10] (MCF-10A), 62.5 times. Moreover, the “Growth inhibition of human normal cell lines GI50” value in [7] stood at 50 ng/mL; in series [10], 250 ng/mL. Moreover, in [8] (across the six cancer cell lines of Table 1), the “Decrease of cancer cell growth inhibition activity with respect to the parent silstatin 7” value was 16-52 times.
Cyclo-[Val-D-Hica-D-Val-Lac]3 returned a ring closure, isolated yield in [1] of 28%.
For the compound `CC(C)C[C@H]1OC(=O)[C@H](Cc2ccc(O)cc2)NC(=O)[C@H](C)OC(=O)[C@@H](C(C)C)NC(=O)[C@@H](CC(C)C)OC(=O)[C@H](C(C)C)NC(=O)[C@H](C)OC(=O)[C@@H](C(C)C)NC(=O)[C@@H](CC(C)C)OC(=O)[C@H](C(C)C)NC(=O)[C@H](C)OC(=O)[C@@H](C(C)C)NC1=O` [Silstatin 3 (8b), Cyclo-{Tyr-D-Hica-D-Val-Lac-[Val-D-Hica-D-Val-Lac]2}], the “Growth inhibition of human cancer cell lines GI50” value in series [2] came out at 5 ng/mL; in [3] it was 5.1 ng/mL; in series [4], 1.1 ng/mL; in series [5], 4 ng/mL; in series [6], 1.6 ng/mL; in series [9], 3.7 ng/mL. Moreover, in series [8], the “Cancer cell growth inhibition, assessment in words” value is listed as “somewhat decreased activity”.
